Measured values published in ChEMBL document CHEMBL5500429, “ERAP Inhibitors in Autoimmunity and Immuno-Oncology: Medicinal Chemistry Insights” (J Med Chem, 2024).

How the values were obtained:
[1] = biological target: T1, Endoplasmic reticulum aminopeptidase 2 (Homo sapiens, UniProt Q6P179); assay: Inhibition of ERAP2 (unknown origin) using R-AMC as substrate
[2] = biological target: Aminopeptidase N (Homo sapiens, UniProt P15144); assay: Inhibition of FLAG-tagged human recombinant Aminopeptidase N
Aminopeptidase N, sequence (P15144 whole entry): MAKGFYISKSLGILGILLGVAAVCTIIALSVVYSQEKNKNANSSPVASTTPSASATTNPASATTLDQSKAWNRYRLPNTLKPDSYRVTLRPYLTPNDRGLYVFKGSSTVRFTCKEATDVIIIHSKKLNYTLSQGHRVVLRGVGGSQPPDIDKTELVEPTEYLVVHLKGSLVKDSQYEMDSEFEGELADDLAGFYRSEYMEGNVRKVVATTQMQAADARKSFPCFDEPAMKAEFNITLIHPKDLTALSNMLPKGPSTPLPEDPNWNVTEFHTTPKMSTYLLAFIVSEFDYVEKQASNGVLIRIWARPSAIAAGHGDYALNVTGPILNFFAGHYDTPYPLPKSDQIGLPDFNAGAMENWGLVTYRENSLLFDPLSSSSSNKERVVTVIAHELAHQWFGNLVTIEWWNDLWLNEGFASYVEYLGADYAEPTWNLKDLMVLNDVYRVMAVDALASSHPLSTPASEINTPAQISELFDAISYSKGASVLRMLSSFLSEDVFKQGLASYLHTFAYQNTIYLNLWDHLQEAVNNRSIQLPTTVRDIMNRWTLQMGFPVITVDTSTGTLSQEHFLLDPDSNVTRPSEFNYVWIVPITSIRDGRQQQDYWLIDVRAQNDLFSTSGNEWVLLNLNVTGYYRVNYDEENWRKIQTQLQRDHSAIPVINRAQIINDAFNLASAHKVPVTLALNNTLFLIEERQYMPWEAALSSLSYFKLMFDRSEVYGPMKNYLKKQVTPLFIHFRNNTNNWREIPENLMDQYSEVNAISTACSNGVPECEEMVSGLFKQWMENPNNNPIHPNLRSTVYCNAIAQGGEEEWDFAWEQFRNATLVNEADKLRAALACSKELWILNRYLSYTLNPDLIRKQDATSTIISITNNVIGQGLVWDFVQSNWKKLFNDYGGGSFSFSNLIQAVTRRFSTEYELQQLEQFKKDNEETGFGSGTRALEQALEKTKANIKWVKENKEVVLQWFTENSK

[3] = biological target: T2, Endoplasmic reticulum aminopeptidase 1 (Homo sapiens, UniProt Q9NZ08); assay: Inhibition of C-terminal Hexa-histidine-tagged human recombinant ERAP1 expressed in Sf9 cells using L-AMC as substrate incubated for 15 mins by Michaelis-Menten analysis
T2 sequence (Q9NZ08 whole entry): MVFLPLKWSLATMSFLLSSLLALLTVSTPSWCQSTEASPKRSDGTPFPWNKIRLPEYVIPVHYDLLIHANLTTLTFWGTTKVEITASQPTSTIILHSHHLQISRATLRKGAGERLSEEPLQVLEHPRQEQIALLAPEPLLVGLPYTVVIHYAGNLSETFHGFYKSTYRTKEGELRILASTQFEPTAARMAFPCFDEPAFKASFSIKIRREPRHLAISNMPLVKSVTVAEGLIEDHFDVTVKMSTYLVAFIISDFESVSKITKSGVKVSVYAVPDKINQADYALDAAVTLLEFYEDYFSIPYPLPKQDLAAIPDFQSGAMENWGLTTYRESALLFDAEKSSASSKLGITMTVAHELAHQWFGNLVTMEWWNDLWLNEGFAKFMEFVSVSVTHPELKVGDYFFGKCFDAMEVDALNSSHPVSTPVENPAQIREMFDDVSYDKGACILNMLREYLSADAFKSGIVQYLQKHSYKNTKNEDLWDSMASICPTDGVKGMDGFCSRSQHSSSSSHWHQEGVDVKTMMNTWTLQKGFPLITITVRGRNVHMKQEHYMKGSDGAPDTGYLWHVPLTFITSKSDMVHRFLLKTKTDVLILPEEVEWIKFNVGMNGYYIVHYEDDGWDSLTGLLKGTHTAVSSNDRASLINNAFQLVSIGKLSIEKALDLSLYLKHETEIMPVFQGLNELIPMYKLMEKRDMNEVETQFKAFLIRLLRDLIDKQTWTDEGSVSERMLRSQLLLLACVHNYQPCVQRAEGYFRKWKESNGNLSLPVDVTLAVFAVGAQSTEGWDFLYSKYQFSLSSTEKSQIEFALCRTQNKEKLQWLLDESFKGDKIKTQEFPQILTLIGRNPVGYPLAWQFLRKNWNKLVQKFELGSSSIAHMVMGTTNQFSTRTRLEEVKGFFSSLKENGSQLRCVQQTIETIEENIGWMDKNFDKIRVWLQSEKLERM

[4] = biological target: T1, Endoplasmic reticulum aminopeptidase 2; assay: Inhibition of C-terminal Hexa-histidine-tagged human recombinant ERAP2 expressed in Sf9 cells using R-AMC as substrate incubated for 15 mins by Michaelis-Menten analysis
[5] = biological target: T2, Endoplasmic reticulum aminopeptidase 1; assay: Inhibition of ERAP1 (unknown origin) using L-AMC as substrate
[6] = Inhibition of C-terminal Hexa-histidine-tagged human recombinant IRAP expressed in Sf9 cells using R-AMC as substrate incubated for 15 mins by Michaelis-Menten analysis
[7] = biological target: T3, Leukotriene A-4 hydrolase (Homo sapiens, UniProt P09960); assay: Inhibition of full length human recombinant Leukotriene A-4 hydrolase expressed in baculovirus infected Insect cells; parameters: species or system Insect cell
T3 sequence (P09960 whole entry): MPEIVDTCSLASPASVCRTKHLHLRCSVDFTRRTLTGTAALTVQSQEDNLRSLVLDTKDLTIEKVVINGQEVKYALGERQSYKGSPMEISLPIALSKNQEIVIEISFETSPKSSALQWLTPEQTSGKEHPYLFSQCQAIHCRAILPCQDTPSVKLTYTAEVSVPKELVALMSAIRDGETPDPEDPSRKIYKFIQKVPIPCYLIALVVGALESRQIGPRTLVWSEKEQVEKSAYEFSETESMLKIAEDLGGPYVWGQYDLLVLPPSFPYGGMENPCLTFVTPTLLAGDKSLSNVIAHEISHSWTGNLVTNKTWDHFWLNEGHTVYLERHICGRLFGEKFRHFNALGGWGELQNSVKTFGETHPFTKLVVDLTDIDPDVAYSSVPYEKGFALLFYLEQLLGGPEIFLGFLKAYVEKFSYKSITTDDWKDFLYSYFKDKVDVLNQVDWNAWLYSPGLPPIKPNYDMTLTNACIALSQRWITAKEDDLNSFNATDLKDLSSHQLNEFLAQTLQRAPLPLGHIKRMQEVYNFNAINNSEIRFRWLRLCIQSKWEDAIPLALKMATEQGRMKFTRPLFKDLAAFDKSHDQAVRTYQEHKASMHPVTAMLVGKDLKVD

[8] = biological target: Cytosol aminopeptidase (Homo sapiens, UniProt P28838); assay: Inhibition of human recombinant Leucine aminopeptidase 3
Cytosol aminopeptidase, sequence (P28838 whole entry): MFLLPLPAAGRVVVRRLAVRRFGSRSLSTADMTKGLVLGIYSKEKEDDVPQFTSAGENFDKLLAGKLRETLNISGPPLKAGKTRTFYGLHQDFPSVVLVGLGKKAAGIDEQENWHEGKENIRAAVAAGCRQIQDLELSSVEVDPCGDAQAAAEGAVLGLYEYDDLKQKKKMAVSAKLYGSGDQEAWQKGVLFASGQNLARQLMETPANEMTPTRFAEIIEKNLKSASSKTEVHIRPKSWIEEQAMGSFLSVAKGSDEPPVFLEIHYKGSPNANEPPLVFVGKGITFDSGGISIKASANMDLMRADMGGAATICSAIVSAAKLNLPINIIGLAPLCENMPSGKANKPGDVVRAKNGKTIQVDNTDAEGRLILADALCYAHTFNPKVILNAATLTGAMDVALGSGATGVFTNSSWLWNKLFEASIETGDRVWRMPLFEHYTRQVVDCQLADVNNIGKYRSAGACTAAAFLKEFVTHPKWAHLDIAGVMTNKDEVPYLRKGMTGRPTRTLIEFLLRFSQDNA

T1 sequence (Q6P179 whole entry): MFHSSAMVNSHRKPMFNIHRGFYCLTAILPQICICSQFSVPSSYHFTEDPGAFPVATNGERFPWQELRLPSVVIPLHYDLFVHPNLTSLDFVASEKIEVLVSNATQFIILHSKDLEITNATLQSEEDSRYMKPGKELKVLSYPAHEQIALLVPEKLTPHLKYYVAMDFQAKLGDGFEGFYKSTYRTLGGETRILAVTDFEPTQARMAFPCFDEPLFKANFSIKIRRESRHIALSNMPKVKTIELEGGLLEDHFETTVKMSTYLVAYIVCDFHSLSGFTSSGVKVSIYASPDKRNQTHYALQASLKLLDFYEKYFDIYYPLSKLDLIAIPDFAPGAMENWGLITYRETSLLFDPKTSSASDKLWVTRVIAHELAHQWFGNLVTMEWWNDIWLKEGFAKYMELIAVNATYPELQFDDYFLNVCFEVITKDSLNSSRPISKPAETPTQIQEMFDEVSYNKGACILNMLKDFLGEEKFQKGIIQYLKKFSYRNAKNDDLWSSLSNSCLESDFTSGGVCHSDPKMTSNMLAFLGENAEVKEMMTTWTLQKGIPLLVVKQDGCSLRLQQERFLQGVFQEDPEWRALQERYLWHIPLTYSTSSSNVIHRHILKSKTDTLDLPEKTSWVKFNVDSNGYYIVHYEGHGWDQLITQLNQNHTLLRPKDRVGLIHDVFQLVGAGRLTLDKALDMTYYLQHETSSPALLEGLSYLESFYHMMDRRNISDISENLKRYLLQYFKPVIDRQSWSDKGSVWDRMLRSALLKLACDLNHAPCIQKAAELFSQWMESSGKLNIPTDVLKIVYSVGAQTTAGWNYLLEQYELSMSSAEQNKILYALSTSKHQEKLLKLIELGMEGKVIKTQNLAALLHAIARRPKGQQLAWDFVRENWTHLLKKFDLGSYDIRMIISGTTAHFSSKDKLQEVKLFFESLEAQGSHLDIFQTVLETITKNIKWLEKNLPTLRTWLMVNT

For `COc1ccc(C(=O)O)cc1S(=O)(=O)Nc1ccc(C(F)(F)F)cc1N1CCCCC1`, the IC50 [1] was 26.8 µM.

`CC(C)C[C@H](N)CS` gave an IC50 [2] of 8 nM, an IC50 [3] of 0.11 µM and an IC50 [4] of 610 nM.

In the case of `COc1ccc(C[C@@H](C(=O)NO)n2cc(CNS(=O)(=O)c3ccc(-c4ccccc4)s3)nn2)cc1`, the IC50 [5] is reported as > 100 µM.

With `O=C(NO)[C@H](Cc1ccc(Oc2ccccc2)cc1)n1cc(CNS(=O)(=O)c2ccc(-c3ccccn3)s2)nn1` the IC50 [5] was > 100 µM.

For `O=C(C[C@H](Cc1ccc(O)cc1)n1nncc1CNS(=O)(=O)c1ccc(-c2ccccn2)s1)NO`, the IC50 [5] was > 100 µM.

Work on `CC(C)C[C@@H](N)[C@H](O)C(=O)N[C@H](C(=O)N[C@H](C(=O)N[C@@H](CC(=O)O)C(=O)O)C(C)C)C(C)C` [AMASTATIN] yielded an IC50 [3] of 22 µM and an IC50 [6] of 25 µM.

For `CC(C)C[C@@H](C(=O)N[C@H](C(=O)OC1CCCC1)c1ccccc1)[C@H](O)C(=O)NO` [TOSEDOSTAT], the IC50 [2] was 30 nM, the IC50 [3] was 18 µM and the IC50 [4] was 770 nM. It also gave an IC50 [7] of 8 nM and an IC50 [8] of 5 nM.

For `CC(C)C[C@H](NC(=O)[C@@H](O)[C@H](N)Cc1ccccc1)C(=O)O` [UBENIMEX], the IC50 [3] was 11 µM and the IC50 [6] was > 100 µM.
